Assay results reported in patent publication US20160058895A1, “RADIOLABELED GNRH ANTAGONISTS AS PET IMAGING AGENTS” (OSLO UNIVERSITETSSYKEHUS HF, priority 2013, published 2016).
“Also recorded” adds a separate entry of the source.

Experiments:
[1] = In vivo stability in rat blood and urine; settings: for % Intact 18F-compound, Blood 1 h: rat blood; for % Intact 18F-compound, Urine 1 h: rat urine
Procedure: (§1) Serum and in vivo stability measurements were performed as follows. Approximately 5 MBq of ^18F compounds (e.g., peptides or small molecules) in PBS (50 μL) was added to freshly collected rat serum (0.4 mL) and samples were incubated at 37° C. in Eppendorf tubes. After 1 hour and 2 hours, ice-cold ethanol (400 μL) was added and the mixtures were centrifuged at 13,400 rpm for 10 minutes. The resulting supernatants were diluted with Solvent A and analyzed by radio-HPLC.
(§2) Also, the stabilities of the compounds were measured in rat serum and in vivo in rat blood and urine (Table 2). Table 2 provides the fraction (as a percentage of the initial amount) of compound remaining in serum, blood, or urine as a function of time (e.g., after 1 and 2 hours).

[2] = Octanol/water partition coefficient, PBS (pH 7.4)/n-octanol; format: physicochemical; settings: phosphate-buffered saline (pH 7.4)/n-octanol, n=3
Procedure: Octanol/water partition coefficients were determined as follows. Approximately 10 kBq of ^18F-compounds in 50 μL PBS were diluted in 450 μL of PBS (pH 7.4) and added to 500 μL of n-octanol in an Eppendorf tube (n=3). After vortexing for 3 minutes, the tubes were centrifuged (10,300 rpm for 6 minutes) and 100 μL aliquots of the PBS and n-octanol phases were carefully transferred to separate tubes. The radioactivity of the samples was counted in a γ-counter.
Log P values were measured in a phosphate-buffered saline (pH 7.4)/n-octanol system.

[3] = Stability in rat serum at 37° C., radio-HPLC; format: in vitro ADME; settings: for % Intact 18F-compound, Serum 1 h / % Intact 18F-compound, Serum 2 h: 37° C.
Procedure: (§3) During the development of embodiments of the technology provided herein, a competitive binding assay was used to measure the binding affinity to rat GnRH receptor of the two nonradioactive reference ^19F-compounds described above. Radiolabeling was performed from [^18F]fluoride using the corresponding mesylate and chloro-precursors using K[^18F]/K222 complex in DMSO. Log P values and serum stability were investigated and their brain uptake was studied by small animal PET imaging in healthy rats.
as §1, §2

[4] = target: T1, human type I GnRH receptor (Homo sapiens, UniProt P30968); assay: Radioligand binding, cell membranes expressing human type I GnRH receptor, [125I]Triptorelin; settings: Ki ± SD, n=3; competition with [125I]Triptorelin; read-out: Receptor affinity Ki for the human GnRH receptor
T1 construct: purchased Merck Millipore
T1 sequence (P30968 1-328): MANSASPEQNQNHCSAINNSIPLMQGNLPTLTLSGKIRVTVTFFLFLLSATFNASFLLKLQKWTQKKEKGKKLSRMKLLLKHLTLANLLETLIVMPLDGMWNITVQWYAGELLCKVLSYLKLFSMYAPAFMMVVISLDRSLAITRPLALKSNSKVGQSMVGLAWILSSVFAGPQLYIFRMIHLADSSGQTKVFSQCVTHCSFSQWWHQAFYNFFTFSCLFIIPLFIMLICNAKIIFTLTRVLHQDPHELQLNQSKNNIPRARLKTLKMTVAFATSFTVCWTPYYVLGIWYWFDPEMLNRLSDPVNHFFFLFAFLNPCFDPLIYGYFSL
Procedure: Radioligand binding studies were performed with 0.18-0.32 nM [^125I]LHRH-[D-Trp^6]
Further, binding curves for of compounds SB-001-RS, SB-002-RS, SB-003-RS, and SB-004-RS for the human GnRH receptor in competition for [^125I]Triptorelin were measured (n=3) (FIG. 3).

[5] = Log D / Log P of pilot compounds, experimentally determined; format: physicochemical; settings: for logP: n-octanol / phosphate-buffered saline, pilot 18F compounds
Procedure: (§4) PSA was calculated using ChemBioDraw Ultra 12.0; Clog D was experimentally determined; Ki was determined by an in vitro assay in HEK 293 cells expressing rat GnRH receptor (see below); the radiochemical yield with respect to isotope decay was corrected based on the start of synthesis, and radiochemical purity was analyzed by Radio-HPLC.
as §4, with “In Table 1, PSA” for “PSA”, “receptor;” for “receptor (see below);”, “to” for “based on”, “Radio HPLC.” for “Radio-HPLC.”
as §3

[6] = Brain uptake by small animal PET imaging in healthy rats; format: in vivo, rat; settings: for Brain uptake (in words): healthy rats
Excerpt: In particular, PET images (e.g., 90-minute summed PET images) of the brain of a Sprague-Dawley rat injected with an [^18F] compound according to an embodiment of the technology show accumulation of the compound in the central regions of the brain.
as §3

rat GnRH receptor = target: T2, rat GnRH receptor (Rattus norvegicus, UniProt P30969); assay: Radioligand binding, membranes of HEK 293 cells expressing rat GnRH receptor, [125I] LH-RH Dtrp6
T2 construct: expressed in transfected cells; host or cells: HEK 293 cells (transient transfection, membranes prepared 48 h later)
T2 sequence (P30969 1-327): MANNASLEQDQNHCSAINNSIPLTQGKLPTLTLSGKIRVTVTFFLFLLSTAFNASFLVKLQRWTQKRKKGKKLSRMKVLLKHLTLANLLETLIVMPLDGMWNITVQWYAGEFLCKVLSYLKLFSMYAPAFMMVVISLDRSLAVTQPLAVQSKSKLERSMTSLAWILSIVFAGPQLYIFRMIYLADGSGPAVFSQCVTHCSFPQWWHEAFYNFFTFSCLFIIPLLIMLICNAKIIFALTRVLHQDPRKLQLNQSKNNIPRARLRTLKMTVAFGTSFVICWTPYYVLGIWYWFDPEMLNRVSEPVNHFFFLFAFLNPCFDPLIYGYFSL
Procedure: as §4
For the membrane preparation and radioligand binding assays, HEK 293 cells were grown in Dulbecco's modified Eagle's medium with 10% fetal bovine serum, penicillin (100 U/ml), and streptomycin (100 μg/ml), and transiently transfected with rat GnRH receptor using LipofectAMINE 2000 (Invitrogen) according to the manufacturer's protocol. 48 hours later, membranes were prepared and radioligand binding was performed as previously described (see, e.g., Krobert et al (2001) “The cloned human 5-HT7 receptor splice variants: a comparative characterization of their pharmacology, function and distribution” Naunyn Schmiedebergs Arch Pharmacol 363(6): 620-32). Radioligand binding studies were performed with 0.18-0.32 nM [^125I] […]
as §4, with “In Table 1, PSA” for “PSA”, “receptor;” for “receptor (see below);”, “to” for “based on”, “Radio HPLC. […]” for “Radio-HPLC.”

SMILES | % Intact 18F-compound, Blood 1 h [1] | % Intact 18F-compound, Urine 1 h [1] | logP [2] | % Intact 18F-compound, Serum 1 h ([3]; rat serum) | % Intact 18F-compound, Serum 2 h ([3]; rat serum) | Ki [4] | further results
COc1cc(NCCCF)cc(OC)c1NC(=O)c1ccc(Oc2cc3c(cc2C)CCC3(C)C)o1 [[^18F]SB-002-RS, N-(4-((3-fluoropropyl)amino)-2,6-dimethoxyphenyl)-5-((3,3,6-trimethyl-2,3-dihydro-1H-inden-5-yl)oxy)furan-2-carboxamide] | 97% | 99% | 1.49 | 99.1% | 97.5% |  | 
COc1cc(NCCCF)cc(OC)c1NC(=O)c1ccc(Oc2cc3c(cc2C)CCC3(C)C)o1 [SB-002-RS, N-(4-((3-fluoropropyl)amino)-2,6-dimethoxyphenyl)-5-((3,3,6-trimethyl-2,3-dihydro-1H-inden-5-yl)oxy)furan-2-carboxamide] |  |  |  |  |  | 1.5 ± 3.9 nM | 
COc1cc(OCCF)cc(OC)c1NC(=O)c1ccc(Oc2cc3c(cc2C)CCC3(C)C)o1 [SB-004-RS, N-(4-(2-fluoroethoxy)-2,6-dimethoxyphenyl)-5-((3,3,6-trimethyl-2,3-dihydro-1H-inden-5-yl)oxy)furan-2-carboxamide] |  |  |  |  |  | 2.1 ± 2.1 nM | 
COc1nc(OCC[18F])nc(OC)c1NC(=O)c1ccc(Oc2cc3c(cc2C)CCC3(C)C)o1 [[^18F]SB7-65-18] |  |  |  |  |  |  | logP ([5]; pH 7.4): 1.3; logD ([5]; pH 7.4, experimentally determined, read-out: CLog D (pH 7.4)): 1.22; Brain uptake (in words) [6]: failed to show significant brain uptake; Ki (rat GnRH receptor): 1.36 nM; Stability in rat serum ([3]; rat serum, over 2 hours): stable
COc1cc(OCCF)cc(OC)c1NC(=O)c1ccc(Oc2cc3c(cc2C)CCC3(C)C)o1 [[^18F]SB-004-RS, N-(4-(2-fluoroethoxy)-2,6-dimethoxyphenyl)-5-((3,3,6-trimethyl-2,3-dihydro-1H-inden-5-yl)oxy)furan-2-carboxamide] | 97.5% | 99% | 1.82 | >95% | 97.3% |  | 
COc1nc([18F])nc(OC)c1NC(=O)c1ccc(Oc2cc3c(cc2C)CCC3(C)C)o1 [[^18F]SB7-65-19] |  |  |  |  |  |  | CLog D (pH 7.4) ([5]; experimentally determined): 1.33; logP ([5]; pH 7.4): 1.4; Brain uptake (in words) [6]: entered the brain and was clearly visibly by PET; also recorded: significant brain uptake; Brain (CNS) uptake ([6]; rat, at 10 minutes): 0.4 % ID/g; Ki (rat GnRH receptor): 42 nM; half-life at 11.1 MBq/mL ([3]; rat, serum, hydrolysis of the amide bond, read-out: Serum stability t1/2): < 30 min

Second part, led by results:

% Intact 18F-compound, Blood 1 h [1] | % Intact 18F-compound, Urine 1 h [1] | logP [2] | % Intact 18F-compound, Serum 1 h ([3]; rat serum) | % Intact 18F-compound, Serum 2 h ([3]; rat serum) | Ki [4] | SMILES | further results
 |  |  |  |  | 0.6 ± 0.4 nM | COc1cc(OCCF)cc(OC)c1NC(=O)c1ccc(Cc2cc3c(cc2C)CCCC3(C)C)o1 [SB-003-RS, N-(4-(2-fluoroethoxy)-2,6-dimethoxyphenyl)-5-((3,8,8-trimethyl-5,6,7,8-tetrahydronaphthalen-2-yl)methyl)furan-2-carboxamide] | 
81% | 94.5% | 1.43 | >95% | 88.5% |  | COc1cc(NCCCF)cc(OC)c1NC(=O)c1ccc(Cc2cc3c(cc2C)CCCC3(C)C)o1 [[^18F]SB-001-RS, N-(4-((3-fluoropropyl)amino)-2,6-dimethoxyphenyl)-5-((3,8,8-trimethyl-5,6,7,8-tetrahydronaphthalen-2-yl)methyl)furan-2-carboxamide] | 
88.1% | 18.5% | 1.68 | >95% | 91.1% |  | COc1cc(OCCF)cc(OC)c1NC(=O)c1ccc(Cc2cc3c(cc2C)CCCC3(C)C)o1 [[^18F]SB-003-RS, N-(4-(2-fluoroethoxy)-2,6-dimethoxyphenyl)-5-((3,8,8-trimethyl-5,6,7,8-tetrahydronaphthalen-2-yl)methyl)furan-2-carboxamide] | 
 |  |  |  |  | 3.7 ± 2.3 nM | COc1cc(NCCCF)cc(OC)c1NC(=O)c1ccc(Cc2cc3c(cc2C)CCCC3(C)C)o1 [SB-001-RS, N-(4-((3-fluoropropyl)amino)-2,6-dimethoxyphenyl)-5-((3,8,8-trimethyl-5,6,7,8-tetrahydronaphthalen-2-yl)methyl)furan-2-carboxamide] | 
